# Test results as given in patent publication US20110015068A1, “Herbicidal Compositions Comprising Pyroxasulfone V” (BASF SE, priority 2008, published 2011).
# Where two headings read alike, the source gives them in different places.
# Columns and labels:
# Galium aparine [1] = experiment: post-emergence greenhouse test, GALAP; type: in vivo; settings: for inhibition at 25 g/ha / inhibition at 100 g/ha: Galium aparine, read-out: observed % activity; for inhibition at 25 g/ha: 25 g ai/ha; for inhibition at 100 g/ha: 100 g ai/ha
# Text: (§1) For the post-emergence treatment, the test plants were first grown to a height of 3 to 20 cm, depending on the plant habit, and only then treated. Here, the herbicidal compositions were suspended or emulsified in water as distribution medium and sprayed using finely distributing nozzles.
# (§2) The respective herbicides A and/or safener were formulated as 10% by weight strength suspension concentrate and introduced to the spray liquor with the amount of solvent system used for applying the active compound. Herbicide B and/or safener were used as commercially available formulations and introduced to the spray liquor with the amount of solvent system used for applying the active compound. In the examples, the solvent used was water.
# (§3) The test period extended over 21 days. During this time, the plants were tended, and their response to the treatments with active compound was evaluated.
# (§4) The evaluation for the damage caused by the chemical compositions was carried out using a scale from 0 to 100%, compared to the untreated control plants. Here, 0 means no damage and 100 means complete destruction of the plants.
# Matricaria inermis = experiment: pre-emergence greenhouse test, MATIN; type: in vivo; settings: Matricaria, read-out: observed % activity; for inhibition at 25 g/ha: 25 g ai/ha; for inhibition at 50 g/ha: 50 g ai/ha
# Text: (§5) For the pre-emergence treatment, directly after sowing the active compounds, which had been suspended or emulsified in water, were applied by means of finely distributed nozzles. The containers were irrigated gently to promote germination and growth and subsequently covered with transparent plastic hoods until plant had rooted. This cover caused uniform germination of the tests plants, unless this was adversely affected by active compounds.
# as §2, §3, §4
# Setaria italica [2] = experiment: post-emergence greenhouse test, SETIT; type: in vivo; settings: Setaria italica, read-out: observed % activity; for inhibition at 50 g/ha: 50 g ai/ha; for inhibition at 100 g/ha: 100 g ai/ha
# Text: as §1, §2, §3, §4
# Ambrosia artemisifolia = experiment: pre-emergence greenhouse test, AMBEL; type: in vivo; settings: Ambrosia, read-out: observed % activity; for inhibition at 25 g/ha: 25 g ai/ha; for inhibition at 50 g/ha: 50 g ai/ha
# Text: as §5, §2, §3, §4
# Kochia scoparia [3] = experiment: post-emergence greenhouse test, KCHSC; type: in vivo; settings: Bassia scoparia, read-out: observed % activity; for inhibition at 13 g/ha: 13 g ai/ha; for inhibition at 100 g/ha: 100 g ai/ha
# Text: as §1, §2, §3, §4
# Sorghum halepense [4] = experiment: pre-emergence greenhouse test, SORHA; type: in vivo; settings: Sorghum halepense, 25 g ai/ha, read-out: observed % activity
# Text: as §5, §2, §3, §4
# Setaria faberii = experiment: post-emergence greenhouse test, SETFA; type: in vivo; settings: 50 g ai/ha, 20 DAT
# Text: as §1, §2, §3, §4
# Galium aparine [5] = experiment: pre-emergence greenhouse test, GALAP; type: in vivo; settings: Galium aparine, read-out: observed % activity; for inhibition at 25 g/ha: 25 g ai/ha; for inhibition at 50 g/ha: 50 g ai/ha
# Text: as §5, §2, §3, §4
# Setaria italica [6] = experiment: pre-emergence greenhouse test, SETIT; type: in vivo; settings: Setaria italica, 25 g ai/ha, read-out: observed % activity
# Text: as §5, §2, §3, §4
# Avena fatua = experiment: post-emergence greenhouse test, AVEFA; type: in vivo; settings: 50 g ai/ha, 20 DAT, Table 3
# Text: as §1, §2, §3, §4
# Kochia scoparia [7] = experiment: pre-emergence greenhouse test, KCHSC; type: in vivo; settings: Bassia scoparia, 25 g ai/ha, read-out: observed % activity
# Text: as §5, §2, §3, §4
# Digitaria sanguinalis = experiment: post-emergence greenhouse test, DIGSA; type: in vivo; settings: 20 DAT
# Text: as §1, §2, §3, §4
# Solanum nigrum = experiment: post-emergence greenhouse test, SOLNI; type: in vivo; settings: Solanum nigrum, read-out: observed % activity; for inhibition at 13 g/ha: 13 g ai/ha; for inhibition at 100 g/ha: 100 g ai/ha
# Text: as §1, §2, §3, §4
# Chenopodium album = experiment: pre-emergence greenhouse test, CHEAL; type: in vivo; settings: Chenopodium album, read-out: observed % activity; for inhibition at 25 g/ha: 25 g ai/ha; for inhibition at 50 g/ha: 50 g ai/ha
# Text: as §5, §2, §3, §4
# Ipomoea purpurea = experiment: pre-emergence greenhouse test, PHBPU; type: in vivo; settings: Ipomoea purpurea, read-out: observed % activity; for inhibition at 25 g/ha: 25 g ai/ha; for inhibition at 50 g/ha: 50 g ai/ha
# Text: as §5, §2, §3, §4
# Sorghum halepense [8] = experiment: post-emergence greenhouse test, SORHA; type: in vivo; settings: Sorghum halepense, 50 g ai/ha, read-out: observed % activity
# Text: as §1, §2, §3, §4
# Bromus inermis = experiment: pre-emergence greenhouse test, BROIN; type: in vivo; settings: Bromus inermis, 25 g ai/ha, read-out: observed % activity
# Text: as §5, §2, §3, §4
# harmful plants = settings: known from Y. Yamaji et al., 2006; cited from earlier work
# Setaria viridis = experiment: post-emergence greenhouse test, SETVI; type: in vivo; settings: 25 g ai/ha, 20 DAT, Table 3
# Text: as §1, §2, §3, §4
# Lolium multiflorum = experiment: post-emergence greenhouse test, LOLMU; type: in vivo; settings: 20 DAT
# Text: as §1, §2, §3, §4
# Xanthium strumarium = experiment: post-emergence greenhouse test, XANST; type: in vivo; settings: Xanthium strumarium, read-out: observed % activity; for inhibition at 13 g/ha: 13 g ai/ha; for inhibition at 25 g/ha: 25 g ai/ha; for inhibition at 100 g/ha: 100 g ai/ha
# Text: as §1, §2, §3, §4
structure (smiles),measurement,setting,value
"Cn1nc(C(F)(F)F)c(CS(=O)(=O)C2=NOC(C)(C)C2)c1OC(F)F [pyroxasulfone, 3-[5-(difluoromethoxy)-1-methyl-3-(trifluoromethyl)pyrazol-4-ylmethylsulfonyl]-4,5-dihydro-5,5-dimethyl-1,2-oxazole]",observed activity in % destruction,"Galium aparine [1]; 12.5 g ai/ha, 20 DAT, Table 4",40%
same,inhibition at 25 g/ha,"Galium aparine [1]; 192 h, 8 DAT",60%
same,inhibition at 100 g/ha,"Galium aparine [1]; 192 h, 8 DAT",70%
same,inhibition at 25 g/ha,"Galium aparine [1]; 480 h, 20 DAT",85%
same,inhibition at 100 g/ha,"Galium aparine [1]; 480 h, 20 DAT",90%
same,inhibition at 25 g/ha,"Matricaria inermis; 192 h, 8 DAT",0%
same,inhibition at 50 g/ha,"Matricaria inermis; 192 h, 8 DAT",20%
same,inhibition at 25 g/ha,"Matricaria inermis; 480 h, 20 DAT",60%
same,inhibition at 50 g/ha,"Matricaria inermis; 480 h, 20 DAT",85%
same,inhibition at 50 g/ha,"Setaria italica [2]; 192 h, 8 DAT",25%
same,inhibition at 100 g/ha,"Setaria italica [2]; 192 h, 8 DAT",45%
same,inhibition at 50 g/ha,"Setaria italica [2]; 480 h, 20 DAT",75%
same,inhibition at 100 g/ha,"Setaria italica [2]; 480 h, 20 DAT",80%
same,inhibition at 25 g/ha,"Ambrosia artemisifolia; 192 h, 8 DAT",40%
same,inhibition at 50 g/ha,"Ambrosia artemisifolia; 192 h, 8 DAT",50%
same,inhibition at 25 g/ha,"Ambrosia artemisifolia; 480 h, 20 DAT",65%
same,inhibition at 50 g/ha,"Ambrosia artemisifolia; 480 h, 20 DAT",80%
same,inhibition at 13 g/ha,"Kochia scoparia [3]; 192 h, 8 DAT",60%
same,inhibition at 100 g/ha,"Kochia scoparia [3]; 192 h, 8 DAT",60%
same,inhibition at 13 g/ha,"Kochia scoparia [3]; 480 h, 20 DAT",50%
same,inhibition at 100 g/ha,"Kochia scoparia [3]; 480 h, 20 DAT",70%
same,inhibition at 25 g/ha,"Sorghum halepense [4]; 192 h, 8 DAT",75%
same,inhibition at 25 g/ha,"Sorghum halepense [4]; 480 h, 20 DAT",95%
same,observed activity in % destruction,Setaria faberii; Table 3,85%
same,observed activity in % destruction,Setaria faberii; Table 4,85%
same,inhibition at 25 g/ha,"Galium aparine [5]; 192 h, 8 DAT",50%
same,inhibition at 50 g/ha,"Galium aparine [5]; 192 h, 8 DAT",70%
same,inhibition at 25 g/ha,"Galium aparine [5]; 480 h, 20 DAT",80%
same,inhibition at 50 g/ha,"Galium aparine [5]; 480 h, 20 DAT",90%
same,inhibition at 25 g/ha,"Setaria italica [6]; 192 h, 8 DAT",75%
same,inhibition at 25 g/ha,"Setaria italica [6]; 480 h, 20 DAT",98%
same,observed activity in % destruction,Avena fatua,75%
same,inhibition at 25 g/ha,"Kochia scoparia [7]; 192 h, 8 DAT",40%
same,inhibition at 25 g/ha,"Kochia scoparia [7]; 480 h, 20 DAT",98%
same,observed activity in % destruction,"Digitaria sanguinalis; 12.5 g ai/ha, Table 4",50%
same,observed activity in % destruction,"Digitaria sanguinalis; 50 g ai/ha, Table 3",80%
same,inhibition at 13 g/ha,"Solanum nigrum; 192 h, 8 DAT",75%
same,inhibition at 100 g/ha,"Solanum nigrum; 192 h, 8 DAT",75%
same,inhibition at 13 g/ha,"Solanum nigrum; 480 h, 20 DAT",75%
same,inhibition at 100 g/ha,"Solanum nigrum; 480 h, 20 DAT",90%
same,inhibition at 25 g/ha,"Chenopodium album; 192 h, 8 DAT",65%
same,inhibition at 50 g/ha,"Chenopodium album; 192 h, 8 DAT",70%
same,inhibition at 25 g/ha,"Chenopodium album; 480 h, 20 DAT",95%
same,inhibition at 50 g/ha,"Chenopodium album; 480 h, 20 DAT",98%
same,inhibition at 25 g/ha,"Ipomoea purpurea; 192 h, 8 DAT",40%
same,inhibition at 50 g/ha,"Ipomoea purpurea; 192 h, 8 DAT",65%
same,inhibition at 25 g/ha,"Ipomoea purpurea; 480 h, 20 DAT",50%
same,inhibition at 50 g/ha,"Ipomoea purpurea; 480 h, 20 DAT",90%
same,inhibition at 50 g/ha,"Sorghum halepense [8]; 192 h, 8 DAT",65%
same,inhibition at 50 g/ha,"Sorghum halepense [8]; 480 h, 20 DAT",90%
same,inhibition at 25 g/ha,"Bromus inermis; 192 h, 8 DAT",60%
same,inhibition at 25 g/ha,"Bromus inermis; 480 h, 20 DAT",75%
same,post-emergence activity,harmful plants,poor
same,observed activity in % destruction,Setaria viridis,75%
same,observed activity in % destruction,"Lolium multiflorum; 12.5 g ai/ha, Table 3",55%
same,observed activity in % destruction,"Lolium multiflorum; 25 g ai/ha, Table 3",55%
same,observed activity in % destruction,"Lolium multiflorum; 50 g ai/ha, Table 4",55%
same,inhibition at 13 g/ha,"Xanthium strumarium; 192 h, 8 DAT",0%
same,inhibition at 25 g/ha,"Xanthium strumarium; 192 h, 8 DAT",20%
same,inhibition at 100 g/ha,"Xanthium strumarium; 192 h, 8 DAT",25%
same,inhibition at 13 g/ha,"Xanthium strumarium; 480 h, 20 DAT",0%
same,inhibition at 25 g/ha,"Xanthium strumarium; 480 h, 20 DAT",25%
same,inhibition at 100 g/ha,"Xanthium strumarium; 480 h, 20 DAT",55%
